Measurements published in patent US11021442B2, “Process for the preparation of freeze-dried 2-[(3-aminopropyl)amino] ethanethiol formulation” (CLEVEXEL PHARMA, priority 2016, dated 2021).

Experiments:
[1] = tested on: radiation-induced oral mucositis; test: Third efficacy study, radiation-induced oral mucositis, four fractions of 8 Gy (Example F-6); format: in vivo, mice
Description: Four fractions of 8 Gy were delivered for four consecutive days (everyday from day 0 to day 3; day 0 corresponding to the first day of treatment) to the snout. The fractionation scheme of four fractions of 8 Gy was chosen, because it is biologically equivalent to 1 fraction of 18 Gy (Biologically Effective Dose: BED 120 Gy). […] Thus, the compound was applied 4 times for four consecutive days. For each day, a similar experimental procedure as for in example F-2 was used. […] The same experimental procedure was repeated for 4 consecutive days.

[2] = tested on: radiation-induced oral mucositis; test: Second efficacy study, radiation-induced oral mucositis, 18 Gy single fraction (Example F-4); format: in vivo, mice
Protocol: The experiment was conducted with gels containing 20, 40 or 80 mg/ml Amifostine (corresponding to 12.5, 25 or 50 mg/ml amifostine thiol respectively). A lower dose of irradiation (a single fraction irradiation of 18 Gy) was delivered to the snout, so that all the mice could be kept alive until the end of the experiment. Different amounts of compound were administered to mice (1; 2 or 4 mg per mouse).
The same experimental procedure as for in example F-2 was used. Briefly, mice were anesthetized, Amifostine or Amifostine thiol was delivered 10 minutes later or not depending on the group (gel application or intravenous injection), mice were irradiated dorsally at an 18 Gy dose 30 minutes after the administration of Amifostine or Amifostine thiol and awakened 20 minutes later.
[…] were allocated to 6 groups: • Control (n=6 mice); • Placebo gel (n=6 mice); • Amifostine thiol 20 mg/ml gel (1 mg amifostine/mouse, n=6 mice); • Amifostine thiol 40 mg/ml gel (2 mg amifostine/mouse, n=6 mice); • Amifostine thiol 80 mg/ml gel (4 mg amifostine/mouse, n=6 mice); and • Amifostine intravenous (IV) (20 mg/ml) (4 mg amifostine/mouse, n=5 mice).
For each group, the development of oral mucositis was evaluated on 5 or 6 mice depending on the group. An 18 Gy dose irradiation induced a less severe phenotype than the 20 Gy dose irradiation that was used in the first efficacy experiment.

[3] = tested on: radiation-induced oral mucositis; test: Efficacy study, radiation-induced oral mucositis, 20 Gy single fraction (Example F-2); format: in vivo, C57BL/6 mice
Protocol: Female C57BL/6 mice (12 weeks old) purchased from Janvier CERT (Le Genest St. Isle, France) were used after an acclimation time of 7 days. They had free access to food (SAFE reference R0340, Augy, France) and water. They were housed on a 12 hours light/dark cycle at a room temperature of 22° C.±2° C. and a relative humidity of 55%±15%.
Irradiation was carried out locally with a X-ray Varian NDI 226 tube (200 kV, 15 mA, 0.2 mm Cu) at a dose rate of 1.33 Gy/min, the rest of the body being protected by a lead shield. Mice were euthanized when body weight loss exceeded 20% of the initial weight for more than 24 hours or in case of severe clinical signs (ethical endpoints). […]
Two parameters were monitored: the body weight and the Parkins score. This represents an arbitrary score system devised by Parkins and co-workers with separate scores for edema and erythema evaluated by macroscopic observation (Parkins, C. S., Fowler, J. F., and Yu, S. (1983). A murine model of lip epidermal/mucosal reactions to X-irradiation. Radiotherapy and oncology: Journal of the European Society for Therapeutic Radiology and Oncology 1, 159-165). […]
The Parkins score is calculated as follows: “Parkins score”=edema score+erythema score.
A single dose irradiation was delivered to the snout of mice. This induced a mucosal/epidermal lip reaction that was monitored through macroscopic observation and scoring. […]

[4] = Stability of lyophilized powder of aminothiol (WR-1065) at 25° C./60% RH under argon; format: physicochemical
Protocol: A stability study is performed to compare stability of: • WR-1065 obtained by conversion of amifostine (350 mg/ml or 500 mg/ml) in acidic condition (respectively HCl 1M or HCl 4M), diluted in water or in P407/P188 mixture and then lyophilized (based on examples described in parts A & B), and • WR-1065 hydrochloride salt crystalline powder.
Stability is assessed by analysis of samples stored under argon atmosphere at 25° C./60% RH. The aim of argon is to provide two materials under same stability condition.

[5] = T1m-25° C./60% RH, under argon atm.
[6] = T15d-25° C./60% RH, under argon atm.

Row | Structure (SMILES) | day of acute peak of mucosal reaction ([1]; IV 2 mg amifostine/mouse) | Parkins score at the peak of mucosal reaction ([1]; day 0 to day 3, 2 mg amifostine per mouse before each fraction, thiol gel = Gel n°9) | effect on mucositis peak and healing period, in words [2] | day of acute peak of mucosal reaction ([2]; IV 4 mg amifostine/mouse) | Parkins score at the peak of mucosal reaction ([2]; gels 1, 2 or 4 mg amifostine/mouse, IV 4 mg/mouse, 30 minutes before irradiation) | effect on development and intensity of mucositis (Parkins score), in words ([3]; 20 Gy single fraction to snout, 4 mg amifostine/mouse 30 minutes before irradiation, thiol gel = Gel n°1, Amifostine gel = Gel n°2) | day after irradiation at which edema and erythema completely disappeared ([3]; 20 Gy single fraction, 4 mg amifostine/mouse IV) | Amifostine ([4]; T0, under argon atm.) | Aminothiol ([4]; T0, under argon atm.) | Disulfides ([4]; T0, under argon atm.) | Unknow ([4]; T0, under argon atm.) | Amifostine [4, 5] | Aminothiol [4, 5] | Disulfides [4, 5] | Unknow [4, 5] | Amifostine [4, 6] | Aminothiol [4, 6] | Disulfides [4, 6] | Unknow [4, 6]
1 | NCCCNCCSP(=O)(O)O [Amifostine IV, Amifostine] | ~15 days | 2.6 | healing period was nearly absent | 12 days | 2.2 | mucosal reaction of moderate intensity | 20 days |  |  |  |  |  |  |  |  |  |  |  | 
2 | NCCCNCCS [WR-1065•2HCl native, 2-[(3-aminopropyl)amino]ethanethiol] |  |  |  |  |  |  |  | 0% | 99.7% | 0.3% | <LOQ | 0% | 99.3% | 0.5% | 0.2% | 0% | 99.6% | 0.4% | <LOQ
